Active and inactive are the calls of the source. The calls are words filed in the database; no cut-off is given here.
Key:
[1] = target: T1, 3-oxo-5-alpha-steroid 4-dehydrogenase 1 (Rattus norvegicus, UniProt P24008); assay: Inhibition of rat liver microsomes 5alpha-reductase1 using [1,2,6,7-3H]T as substrate measured after 60 mins by chromatographic method
T1 sequence (P24008 whole entry): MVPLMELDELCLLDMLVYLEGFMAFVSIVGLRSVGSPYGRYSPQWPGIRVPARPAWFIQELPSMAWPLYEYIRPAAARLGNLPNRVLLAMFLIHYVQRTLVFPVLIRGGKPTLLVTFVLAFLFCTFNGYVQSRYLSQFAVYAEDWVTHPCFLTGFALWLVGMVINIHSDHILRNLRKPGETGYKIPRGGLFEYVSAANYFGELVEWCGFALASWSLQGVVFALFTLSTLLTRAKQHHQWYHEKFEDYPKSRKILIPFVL

Syrian golden hamster [2] = assay: Inhibition of testosterone-induced flank organ enlargement in golden hamster assessed as reduction in diameter of pigmented spot at 2 mg/kg, sc administered daily for 6 days measured post last dose by calliper method; assay type: functional, organism-based; details: Mesocricetus auratus
Syrian golden hamster [3] = assay: Inhibition of testosterone-induced increase in prostate weight in golden hamster at 2 mg/kg, sc administered daily for 6 days measured post last dose; assay type: functional, organism-based; details: Mesocricetus auratus
Syrian golden hamster [4] = assay: Inhibition of testosterone-induced increase in seminal vesicle weight in golden hamster at 2 mg/kg, sc administered daily for 6 days measured post last dose; assay type: functional, organism-based; details: Mesocricetus auratus
[5] = target: T2, 3-oxo-5-alpha-steroid 4-dehydrogenase 2 (Homo sapiens) (UniProt P31213); assay: Inhibition of 5alpha-reductase2 (unknown origin)
T2 sequence (whole entry): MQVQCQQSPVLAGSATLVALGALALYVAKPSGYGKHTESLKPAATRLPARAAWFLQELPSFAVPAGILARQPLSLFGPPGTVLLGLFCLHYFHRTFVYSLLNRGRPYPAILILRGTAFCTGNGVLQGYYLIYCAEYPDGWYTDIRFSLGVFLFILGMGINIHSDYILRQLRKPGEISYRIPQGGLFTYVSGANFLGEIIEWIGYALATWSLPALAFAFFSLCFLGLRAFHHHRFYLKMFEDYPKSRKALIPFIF

[6] = Drug metabolism in golden hamster plasma assessed as esterase-mediated 21(2-Oxo-ethyl-benzimidazol)-3-ceto, pregnen-16,17-diene formation at 4 mg/kg, sc measured after 60 to 120 mins in presence of testosterone by TLC method; assay type: ADME, organism-based, Mesocricetus auratus; details: in vivo
[7] = Stability of the compound in water; assay type: physicochemical; details: buffer
Syrian golden hamster [8] = assay: Inhibition of testosterone-induced flank organ enlargement in golden hamster assessed as reduction in diameter of pigmented spot at 1 mg/kg, sc administered daily for 6 days measured post last dose by calliper method; assay type: functional, organism-based; details: Mesocricetus auratus
Syrian golden hamster [9] = assay: Inhibition of testosterone-induced increase in prostate weight in golden hamster at 1 mg/kg, sc administered daily for 6 days measured post last dose; assay type: functional, organism-based; details: Mesocricetus auratus
Syrian golden hamster [10] = assay: Inhibition of testosterone-induced increase in seminal vesicle weight in golden hamster at 1 mg/kg, sc administered daily for 6 days measured post last dose; assay type: functional, organism-based; details: Mesocricetus auratus
[11] = Drug metabolism in golden hamster plasma assessed as esterase-mediated 21(2-Oxo-ethyl-benzimidazol)-3-ceto, pregnen-16,17-diene formation by measuring retardation factor at 4 mg/kg, sc measured after 30 mins in presence of testosterone by TLC method; assay type: ADME, organism-based, Mesocricetus auratus; details: in vivo, 0.5 h
Syrian golden hamster [12] = assay: Inhibition of testosterone-induced flank organ enlargement in golden hamster assessed as diameter of pigmented spot at 2 mg/kg, sc administered daily for 6 days measured post last dose by calliper method; assay type: functional, Mesocricetus auratus

IC50 ([1]; read-out: IC50) [µM]	inhibition [5]	IC50 [1]	Drug metabolism [6]	Stability [7]	Rf [11]	Compound	inhibition (Syrian golden hamster [2])	inhibition (Syrian golden hamster [3])	inhibition (Syrian golden hamster [4])	inhibition (Syrian golden hamster [8])	inhibition (Syrian golden hamster [9])	inhibition (Syrian golden hamster [10])	Activity (Syrian golden hamster [12]) [mm]
0.291	inactive					C[C@]12CC[C@H](O)CC1=CC[C@@H]1[C@@H]2CC[C@]2(C)C(n3cnc4ccccc43)=C(C=O)C[C@@H]12	Active	Active	Active				
	inactive	Not Active	Metabolite_Detected	Stable		Cc1ccc(C(=O)O[C@H]2CC[C@@]3(C)C(=CC[C@@H]4[C@@H]3CC[C@]3(C)C(n5cnc6ccccc65)=C(C=O)C[C@@H]43)C2)cc1	Active	Active	Active				
						CC(C)(C)NC(=O)[C@H]1CC[C@H]2[C@@H]3CC[C@H]4NC(=O)C=C[C@]4(C)[C@H]3CC[C@]12C				Active	Active	Active	
	inactive	Not Active		Stable	0.42	C[C@]12CC[C@H](OC(=O)c3ccc(I)cc3)CC1=CC[C@@H]1[C@@H]2CC[C@]2(C)C(n3cnc4ccccc43)=C(C=O)C[C@@H]12	Active	Active	Active				
83	inactive			Unstable	0.42	C[C@]12CC[C@H](OC(=O)c3ccc(Cl)cc3)CC1=CC[C@@H]1[C@@H]2CC[C@]2(C)C(n3cnc4ccccc43)=C(C=O)C[C@@H]12	Active	Active	Active				
40	inactive			Unstable	0.42	C[C@]12CC[C@H](OC(=O)c3ccc(F)cc3)CC1=CC[C@@H]1[C@@H]2CC[C@]2(C)C(n3cnc4ccccc43)=C(C=O)C[C@@H]12		Active	Active				1.7
	inactive	Not Active	Metabolite_Detected	Stable	0.42	C[C@]12CC[C@H](OC(=O)c3ccc(Br)cc3)CC1=CC[C@@H]1[C@@H]2CC[C@]2(C)C(n3cnc4ccccc43)=C(C=O)C[C@@H]12	Active	Active	Active				
	inactive	Not Active	Metabolite_Detected	Stable		C[C@]12CC[C@H](OC(=O)c3ccccc3)CC1=CC[C@@H]1[C@@H]2CC[C@]2(C)C(n3cnc4ccccc43)=C(C=O)C[C@@H]12	Active	Active	Active				
